Reference: patent publication US20200338158A1, “Therapeutic Drug for Non-Alcoholic Fatty Liver Disease” (Shanghai Hep Pharmaceutical Co., Ltd., priority 2017, published 2020)
Entries after “also recorded” stand apart in the source; their conditions may differ.

What was measured:
Type in all cases: in vivo
C57BL6 mice [1] = assay: Liver histology (HE, Oil Red O, Masson, TUNEL staining), mouse NASH model; conditions: for liver Masson staining (fibrous cords) / liver Oil Red O staining (fat accumulation) / liver Masson staining (fibrous depositions): vs model group
Procedure: (§1) In this example, a mouse nonalcoholic steatohepatitis (NASH) model was used to evaluate the effect of hepalatide (L47) on pathological changes and metabolism level of NASH, and to determine whether L47 can improve the pathological changes of NASH, so as to provide reference for pharmacodynamic evaluation of L47 before clinical treatment.
At week 8 and week 16, hematoxylin eosin (HE) staining, trichrome staining (Masson staining), Oil Red 0 staining and apoptosis (TUNEL) staining were performed on the liver tissue sections of mice.

C57BL6 mice [2] = assay: Blood (serum) biochemistry test, mouse NASH model
Description: as §1
Total cholesterol (TC), triglyceride (TG), total bilirubin (TBIL), high-density lipoprotein cholesterol (HDL-C), low-density lipoprotein cholesterol (LDL-C), alkaline phosphatase (ALP), albumin (ALB), aspartate aminotransferase (AST) and alanine aminotransferase (ALT) were provided by Shanghai Adicon Company and tested by automatic biochemical analyzer.
Total bile acid (TBA), very low density lipoprotein (VLDL): provided by Nanjing Jiancheng Bioengineering Institute.
At week 8 and week 16, blood was taken from fasted mice (fasted for 12 hours) after anesthesia, and levels of serum TG, TC, ALB, ALP, ALT, AST, HDL-C, LDL-C, VLDL, TBIL, TBA, insulin (Ins) were measured.

C57BL6 mice [3] = assay: Body weight and general observation of abdominal fat, mouse NASH model
Description: as §1
Each experimental group was provided with sufficient feed and water daily with free diet, and water was changed twice a week for sugar water-added group, and the remaining amount of feed was weighed and added to 150 g each week for each group in addition to the normal control group, and body weight of mice was weighed each week for each group.
At week 8 and week 16, liver was separated by dissection after anesthesia and blood collection, and pathological changes of liver tissues and accumulation of abdominal fat were grossly observed by the naked eye.

C57BL6 mice [4] = assay: Quantitative CT of body fat deposition, mouse NASH model; conditions: week 16; for subcutaneous fat (CT): vs model group
Description: as §1
Quantitative CT was used to locate and quantify subcutaneous, visceral and brown fat in mice at week 16.

[5] = week 8, treatment groups (HL1, HH1)
[6] = week 16, HH1 (L47 30 mg/kg*2/d s.c. from start)
[7] = week 16, HH2 (L47 30 mg/kg*2/d s.c., started after 8 weeks)
[8] = week 16, HL1 (L47 10 mg/kg*2/d s.c. from start)
[9] = week 16, HL2 (L47 10 mg/kg*2/d s.c., started after 8 weeks)
[10] = week 8, treatment groups (HL1, HH1) vs model group
[11] = week 8, treatment groups vs model group
[12] = week 8, vs model group, HL1 (L47 10 mg/kg*2/d s.c. from start)
[13] = week 16, treatment groups vs model group (conclusions)
[14] = week 16, vs model group, HH2 (L47 30 mg/kg*2/d s.c., started after 8 weeks), 30 mg/kg
[15] = week 16, vs model group, HL1 (L47 10 mg/kg*2/d s.c. from start)
[16] = week 16, vs model group, HL2 (L47 10 mg/kg*2/d s.c., started after 8 weeks), p<0.05
[17] = week 16, vs model group, high dose group 1 (L47 30 mg/kg*2/d s.c. from start), 30 mg/kg
[18] = treatment groups vs model group

hepalatide [L47]
liver HE staining (fat vacuoles, inflammatory cells) (C57BL6 mice [1]; week 8, low and high dose groups (HL1, HH1)): only less and smaller fat vacuoles were formed, with less inflammatory cells
liver Oil Red O staining (fat droplet vacuoles) (C57BL6 mice [1]; [5]): only smaller and less vacuoles
liver TUNEL staining (apoptosis) (C57BL6 mice [1]; [5]): effectively improved
TUNEL semi-quantitative counting (number of apoptotic bodies) (C57BL6 mice [1]; week 8, treatment groups (HL1, HH1) vs model group, p<0.001, p<0.001): significantly decreased
liver HE staining (steatosis, inflammatory cell infiltration) (C57BL6 mice [1]; [6]): severe steatosis
liver TUNEL staining (apoptosis) (C57BL6 mice [1]; [6]): no improvement
liver TUNEL staining (apoptosis) (C57BL6 mice [1]; [7]): effectively improved
TUNEL semi-quantitative counting (number of apoptotic bodies) (C57BL6 mice [1]; week 16, HH2 (L47 30 mg/kg*2/d s.c., started after 8 weeks), p<0.01): significantly decreased
liver TUNEL staining (apoptosis) (C57BL6 mice [1]; [8]): no improvement
liver TUNEL staining (apoptosis) (C57BL6 mice [1]; [9]): effectively improved
TUNEL semi-quantitative counting (number of apoptotic bodies) (C57BL6 mice [1]; week 16, HL2 (L47 10 mg/kg*2/d s.c., started after 8 weeks), p<0.01): significantly decreased
liver HE staining (steatosis, inflammatory response) (C57BL6 mice [1]; week 16, other groups (HL1, HL2, HH2)): slight steatosis and inflammatory response
liver Masson staining (fibrous cords) (C57BL6 mice [1]; [6]): no significant difference
liver Oil Red O staining (fat accumulation) (C57BL6 mice [1]; [6]): only slightly reduced
liver Masson staining (fibrous depositions) (C57BL6 mice [1]; [7]): decreased
liver Oil Red O staining (fat accumulation) (C57BL6 mice [1]; [7]): significantly reduced
liver Masson staining (fibrous cords) (C57BL6 mice [1]; [8]): no significant difference
liver Oil Red O staining (fat accumulation) (C57BL6 mice [1]; [8]): only slightly reduced
liver Masson staining (fibrous depositions) (C57BL6 mice [1]; [9]): decreased
liver Oil Red O staining (fat accumulation) (C57BL6 mice [1]; [9]): significantly reduced
serum LDL-C level (C57BL6 mice [2]; at week 20 (so in the source), HH1 (L47 30 mg/kg*2/d s.c. from start), p<0.01): decreased
serum LDL-C level (C57BL6 mice [2]; at week 20 (so in the source), HL1 (L47 10 mg/kg*2/d s.c. from start), p≤0.001): decreased
serum HDL-C level (C57BL6 mice [2]; at week 20 (so in the source), treatment groups except HH2, vs model group, p<0.01): decreased
serum LDL-C level (C57BL6 mice [2]; week 8, HH1 (L47 30 mg/kg*2/d s.c. from start)): decreased
serum TC level (C57BL6 mice [2]; week 8, HL1 (L47 10 mg/kg*2/d s.c. from start), p<0.05): decreased significantly
serum AST level (C57BL6 mice [2]; [10]): decreasing trend; also recorded: decreased
serum TC level (C57BL6 mice [2]; [10]): significantly decreased
serum TG level (C57BL6 mice [2]; [10]): significantly decreased
serum ALT level (C57BL6 mice [2]; week 8, treatment groups (HL1, HH1) vs model group, p≤0.001): significantly decreased
serum ALB level (C57BL6 mice [2]; [11]): decreased
serum ALP level (C57BL6 mice [2]; [11]): no significant difference
serum HDL level (C57BL6 mice [2]; [11]): no significant difference
serum LDL level (C57BL6 mice [2]; [11]): decreased
serum VLDL level (C57BL6 mice [2]; [11]): no significant difference
serum HDL-C level (C57BL6 mice [2]; [12]): decreased
serum LDL-C level (C57BL6 mice [2]; [12]): decreased
serum ALB level (C57BL6 mice [2]; week 16, HH2 (L47 30 mg/kg*2/d s.c., started after 8 weeks), p<0.001): slightly decreased
serum ALB level (C57BL6 mice [2]; week 16, HL2 (L47 10 mg/kg*2/d s.c., started after 8 weeks), p<0.001): slightly decreased
serum ALP level (C57BL6 mice [2]; week 16, among the groups): no significant difference
serum ALB level (C57BL6 mice [2]; week 16, other groups (HL1, HH1)): no difference
serum VLDL level (C57BL6 mice [2]; week 16, other groups except HL2 (HL1, HH1, HH2) vs model group): increased
serum TC level (C57BL6 mice [2]; week 16, treatment groups (HL1, HH1, HL2, HH2) vs model group, p<0.001, p<0.001, p≤0.001, p<0.05): significantly decreased
serum TG level (C57BL6 mice [2]; week 16, treatment groups vs model group): did not decrease; also recorded: no significant difference
serum HDL level (C57BL6 mice [2]; [13]): decreased
serum LDL level (C57BL6 mice [2]; [13]): decreased
serum VLDL level (C57BL6 mice [2]; [13]): no significant difference
serum ALT level (C57BL6 mice [2]; [14]): decreasing trends; also recorded: decreased significantly
serum AST level (C57BL6 mice [2]; [14]): decreasing trends; also recorded: decreased significantly
serum ALT level (C57BL6 mice [2]; [15]): did not decrease
serum AST level (C57BL6 mice [2]; [15]): did not decrease
serum ALT level (C57BL6 mice [2]; [16]): significantly decreased
serum AST level (C57BL6 mice [2]; [16]): significantly decreased
serum ALT level (C57BL6 mice [2]; [17]): did not decrease; also recorded: increasing trends
serum AST level (C57BL6 mice [2]; [17]): did not decrease; also recorded: increasing trends
body weight (C57BL6 mice [3]; week 8, L47 treatment groups vs model group): significantly decreased
abdominal fat deposition (general observation) (C57BL6 mice [3]; week 8, treatment groups): significant effect
abdominal fat deposition (general observation) (C57BL6 mice [3]; week 16, among each group): no significant difference
body weight (C57BL6 mice [3]; week 16, low dose group 2): decrease
body weight (C57BL6 mice [3]; week 16, treatment groups except low dose group 2, vs model group): no significant difference
subcutaneous fat (quantitative body fat on CT scan) (C57BL6 mice [4]; L47 treatment groups vs model group (conclusions)): decreased significantly
brown fat (CT) (C57BL6 mice [4]; [18]): no significant difference
visceral fat (CT) (C57BL6 mice [4]; [18]): no significant difference; also recorded: no significant effect
subcutaneous fat (CT) (C57BL6 mice [4]; HH1 (L47 30 mg/kg*2/d s.c. from start)): decreased
subcutaneous fat (CT) (C57BL6 mice [4]; HH2 (L47 30 mg/kg*2/d s.c., started after 8 weeks)): decreased
subcutaneous fat (CT) (C57BL6 mice [4]; HL2 (L47 10 mg/kg*2/d s.c., started after 8 weeks)): decreased
